In patent US20140314747A1, “PREDICTING RESPONSE TO EGFR INHIBITORS” (Genentech, Inc., priority 2013, published 2014):

Key:
Type in all cases: cell-based, mouse
pancreatic explants = assay: pancreatic explant culture, cyst formation
Method: (§1) Pancreas and individual lobes of the lungs were dissected from embryos harvested from timed pregnancy setups. Embryonic explants were cultured on 12 mm Transwell® with 0.4 μm polyester membrane insert (Corning, Tewsbury, Mass.) at the air-liquid interface in DME media with 10% fetal calf serum, glutamine and penicillin-streptomycin. For longer-term cultures (>3 days), media was changed daily.
(§2) Embryonic explants were fixed in 4% paraformaldehyde, permeabilized in PBS with 2% BSA, 0.1% saponin or 0.1% Triton-X100. After washing, tissues were stained with anti-E-cadherin (Santa Cruz). Explants were mounted and imaged with a Leica SP5 laser confocal microscope. Images shown are representative of multiple independent experiments (n≧5) with littermate explants that were cultured, stained and imaged under substantially the same conditions and settings.
(§3) Homozygous germline mutations in LKB1 in mice are early embryonic lethal. […] This allele (Lkb1^MG) was “knocked-in” to the endogenous LKB1 locus to generate a genetically engineered mouse line that has been described in detail elsewhere (Lo et al., 2012, J. Cell. Biol., 199: 1117-1130). Lung and pancreas tissues from Lkb1^MG/MG embryos and wild-type littermates were dissected and grown in vitro for several days. Lung cultures were grown both as whole mount explants, and “mesenchyme-free” where most of the mesenchyme and other tissue types were stripped from the lung epithelium and the epithelium was cultured in Matrigel (Lu et al., 2005, J. Biol. Chem., 280: 4834-4841). During this time, the response of these tissues to growth factors was assessed.

[1] = test system: mesenchyme free lung explants (lung epithelium in Matrigel); assay: mesenchyme-free lung explant culture, growth and branching
Method: as §1
For mesenchyme-free cultures, lungs were dissected and incubated in Collagenase/Dispase (1 mg/ml for each) for 10-15 minutes at room temperature. Epithelial tissue was removed by mechanical dissection, transferred to the Transwell® plates, and covered with 5-10 μl of 1:1 Matrigel:DME. After Matrigel was solidified, 400 μl media (DME/10% FCS/glutamine/pen-strep+200 ng/ml FGF7 (Life Technologies, Carlsbad, Calif.), FGF1 (Life Technologies), or EGF (Life Technologies)) was added to top and bottom wells. Erlotinib (Tarceva®, 1 μM hydrochloride salt; OSI Pharmaceuticals) or DMSO was added as indicated.
as §2, §3

[2] = test system: whole mount lung explants; assay: whole mount lung explant culture, growth; settings: for size of terminal buds: addition of EGF
Method: as §1, §2, §3

With C#Cc1cccc(Nc2ncnc3cc(OCCOC)c(OCCOC)cc23)c1 [erlotinib] the “effect on development of the cystic phenotype” value (pancreatic explants; erlotinib 1 μM, Lkb1 inhibition (NMPP1) with EGF) was “inhibits the development of the cystic phenotype”, the “effect on EGF-induced growth” value ([1]; mesenchyme free cultures, erlotinib 1 μM, EGF + NMPP1) was “inhibited” and the “effect on EGF-induced growth” value ([2]; whole mount cultures, erlotinib 1 μM, EGF + NMPP1) was “inhibited”.
In the case of “EGF: epidermal growth factor (Life Technologies) added to explant media (NSDSECPLSHDGYCLHDGVCMYIEALDKYACNCVVGYIGERCQYRDLKWWELR; UniProt P01133 971-1023, looked up)”, the “development of the cystic phenotype” value (pancreatic explants; EGF 100 ng/ml, with Lkb1 inhibition) is reported as “accelerates the development of the cystic phenotype”, the cyst formation (pancreatic explants; EGF, in the absence of Lkb1 inhibition) is reported as “does not by itself promote cysts” and the growth ([1]; Lkb1 MG/MG explants, EGF 100 ng/ml in the presence of NMPP1) is reported as “substantial growth”. For the same molecule, the “growth compared to no growth factor” value ([1]; Lkb1 wt/wt explants, EGF 100 ng/ml in the presence of NMPP1) was “modest increase in growth”, the “size of terminal buds” value ([2]; LKB1 wt/wt lungs) was “only a modest increase in size” and the “size of terminal buds” value ([2]; Lkb1 MG/MG lungs) was “substantial enlargement of the terminal buds”.
For “FGF-1: fibroblast growth factor (FGF)-1 (Life Technologies)”, the “growth of mesenchyme free lung cultures” value ([1]; both LKB1 wt/wt and LKB1 MG/MG, presence and absence of NMPP1) was “robust growth”.
